Assay results reported in patent US8470844B2, “Imidazoacridinone derivative compounds and methods for their use” (Technion Research & Development Foundation Limited, priority 2008, dated 2013).

Experiments:
[1] = target: T1, ABCG2 (A549/K1.5 cells) (Homo sapiens, UniProt Q9UNQ0); assay: Flow cytometric IA accumulation in A549/K1.5 cells with or without fumitremorgin C; type: cell-based
T1 construct: Drug resistant A549/K1.5 cells with ABCG2 overexpression were maintained under a continuous drug selection with 1.5 μM C-1305; endogenous in cells; host or cells: A549/K1.5 (C-1305-selected subline of human non-small cell lung cancer A549)
T1 sequence (Q9UNQ0 1-655): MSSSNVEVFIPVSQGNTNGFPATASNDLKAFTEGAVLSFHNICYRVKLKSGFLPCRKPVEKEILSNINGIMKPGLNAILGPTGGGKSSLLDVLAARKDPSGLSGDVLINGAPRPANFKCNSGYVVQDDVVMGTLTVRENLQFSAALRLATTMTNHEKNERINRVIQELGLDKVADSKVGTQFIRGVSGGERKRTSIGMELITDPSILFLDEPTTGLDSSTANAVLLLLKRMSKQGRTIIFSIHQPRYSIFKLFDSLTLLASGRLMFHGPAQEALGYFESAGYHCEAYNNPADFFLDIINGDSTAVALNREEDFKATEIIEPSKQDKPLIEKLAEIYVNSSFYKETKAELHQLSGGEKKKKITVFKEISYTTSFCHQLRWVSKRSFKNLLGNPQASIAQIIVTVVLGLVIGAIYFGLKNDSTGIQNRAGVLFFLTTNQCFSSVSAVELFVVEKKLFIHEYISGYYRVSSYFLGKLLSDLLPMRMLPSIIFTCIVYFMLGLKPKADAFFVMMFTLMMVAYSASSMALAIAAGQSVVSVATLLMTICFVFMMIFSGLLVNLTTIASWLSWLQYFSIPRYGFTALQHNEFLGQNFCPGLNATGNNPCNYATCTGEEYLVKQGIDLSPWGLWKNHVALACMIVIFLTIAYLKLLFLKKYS
Protocol: In this assay, one ml aliquots of A549/K1.5 or CCRF-CEM cell suspensions (1×10^6 cells/ml) in growth medium containing 20 mM Hepes at pH 7.3 were distributed into 1.5 ml polypropylene Eppendorf test tubes. […] Rabindran, S. […] Alternatively, in time-course experiments, IA derivatives at a constant concentration of 10 μM were added to a CCRF-CEM cell suspension incubated at 37° C., and 1 ml aliquots were removed at variable time points up to 1 hour. Following incubation, test tubes were transferred to ice and centrifuged at 4° C. Cells were then washed twice and re-suspended in ice-cold PBS containing 1% fetal calf serum and kept in the dark at 4° C. until analysis. […] Quantitative evaluation of ABCG2 interaction with various IA derivatives: The extent of ABCG2-mediated resistance was expressed using the Resistance Fold (RF) parameter representing the ratio between the IC50 values of the resistant cells and parental cells.

[2] = target: T2, FLT3 receptor tyrosine kinase (Homo sapiens, UniProt P36888); conditions: preclinical, from cited literature; cited from earlier work
T2 sequence (P36888 27-993): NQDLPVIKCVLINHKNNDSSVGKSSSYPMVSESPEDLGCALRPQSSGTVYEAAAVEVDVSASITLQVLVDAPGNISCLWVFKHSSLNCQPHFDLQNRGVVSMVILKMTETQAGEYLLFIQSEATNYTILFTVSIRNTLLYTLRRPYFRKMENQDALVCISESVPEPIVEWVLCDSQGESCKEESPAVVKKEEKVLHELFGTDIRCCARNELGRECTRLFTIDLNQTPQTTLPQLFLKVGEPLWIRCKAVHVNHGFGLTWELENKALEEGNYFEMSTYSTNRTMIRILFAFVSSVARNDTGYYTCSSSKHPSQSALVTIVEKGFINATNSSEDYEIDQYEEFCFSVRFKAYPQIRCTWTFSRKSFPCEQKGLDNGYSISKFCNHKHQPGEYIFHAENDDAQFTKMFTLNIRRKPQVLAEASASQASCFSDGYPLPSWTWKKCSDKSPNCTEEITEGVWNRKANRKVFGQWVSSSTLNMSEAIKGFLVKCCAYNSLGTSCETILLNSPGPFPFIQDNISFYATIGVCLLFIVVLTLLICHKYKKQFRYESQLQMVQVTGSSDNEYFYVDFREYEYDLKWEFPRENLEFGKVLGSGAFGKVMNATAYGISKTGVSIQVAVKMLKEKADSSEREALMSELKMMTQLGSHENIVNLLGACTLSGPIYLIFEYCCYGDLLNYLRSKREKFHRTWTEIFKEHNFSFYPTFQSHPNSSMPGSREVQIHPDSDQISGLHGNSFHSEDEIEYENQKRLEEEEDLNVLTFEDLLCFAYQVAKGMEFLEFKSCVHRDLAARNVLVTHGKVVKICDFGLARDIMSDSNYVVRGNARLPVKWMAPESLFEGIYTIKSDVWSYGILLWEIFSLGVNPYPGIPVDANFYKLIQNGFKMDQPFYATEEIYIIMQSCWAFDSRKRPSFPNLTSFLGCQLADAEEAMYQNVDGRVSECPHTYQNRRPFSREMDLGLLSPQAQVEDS

## CCN(CC)CCNc1ccc2ncn3c4ccc(O)cc4c(=O)c1c23 [C-1311]
[1]
  ABCG2-mediated extrusion / interaction with ABCG2 (in words): extruded by ABCG2-overexpressing lung cancer A549/K1.5 cells
[2]
  FLT3 receptor tyrosine kinase inhibition (in words): potent and selective FLT3 receptor tyrosine kinase inhibitor
